These results are taken from PubChem BioAssay AID2060505 (Molecular Pharmacology Branch, DTP, NCI, 2025).

SMILES strings stand for the structures. Values joined by “and” are separate entries in the source; they are usually repeats but may differ in a detail not shown here. Equal entries are not always repeated.

In this assay the test system is 633275-114-R-J1-PDC complex spheroids, viability. Description: Anticancer human tumor 633275-114-R-J1-PDC patient-derived endometrial adenocarcinoma cell line growth inhibition [GQUAD]. The settings on record: for viability, T/C: stronger effect = lower value. An excerpt:
DNA G-quadruplex Stabilizer Agents in Combinations in Complex Spheroids
A high-throughput screen of multi-cell type tumor spheroids was designed to identify active combinations of DNA G-quadruplex stabilizer agents and targeted small molecules. Complex spheroids include a stromal component modeled by human endothelial cells (HUVEC) and fibroblasts modeled by human mesenchymal stem cells (MSCs). The concentration ranges selected for each drug and investigational agent were based upon clinically achievable concentrations if the clinical Cmax of the agent was known.
Compounds. The drugs and investigational agents: pidnarulex (CX-5461; NSC782164), APTO-253 (NSC789042), BRACO-19 (NSC847499), peposertib (NSC802822), ceralasertib (NSC780249), elimusertib (NSC800525), camonsertib (NSC841442), AZD-1390 (NSC803789), olaparib (NSC753686), talazoparib (NSC767125), ART-558 (NSC835418), sotorasib (NSC818433), MRTX-1133 (NSC836407), SN-38 (NSC673596), topotecan (NSC609699), etoposide (NSC141540), doxorubicin (NSC123127), gemcitabine (NSC613327), 5-fluorouracil (NSC19893), paclitaxel (NSC125973), vemurafenib (NSC761431), panobinostat (NSC761190), R-306465 (JNJ-16241199; NSC773264), adavosertib (NSC754352), TP-3654 (NSC805149), carboplatin (NSC241240), KSQ-4279 (NSC840948), and staurosporine (NSC755774) were obtained from the National Cancer Institute (NCI) Developmental Therapeutics Program Chemical Repository (34). The FDA-approved anticancer drug set is available from the NCI Developmental Therapeutics Program. […] The stock solutions were prepared in dimethyl sulfoxide (DMSO, Sigma-Aldrich, St. Louis, MO, cat. D2650) at 800-fold the tested concentration and stored at -70 degrees C prior to their use. All drugs and investigational agents were tested over a range starting from a high concentration at or near the clinical Cmax and decreasing in half-log increments. If the clinical Cmax for an agent had not been determined, the highest concentration tested was 10 microM.
2.3 Cell Culture. All cells were maintained in an incubator at 37 degrees C and 5% CO2 with 95% humidity. The PDC lines were cultured according to standard operating procedures established by the NCI PDMR. All PDCs were thawed and cultured in Matrigel-coated flasks prepared with a working solution of 1X Ham's F-12 nutrient mix, without supplementation (Invitrogen, cat. 11765054), 100 U/mL penicillin-streptomycin (Invitrogen, cat. 15140122), and 2.5% Matrigel (Corning Inc., cat. 354248) for the first three passages. The 857933-349-R-J2-PDC line was cultured in 6C/Colon 1B media, which includes advanced DMEM/F-12 (Thermo Fisher Scientific, cat. 12634028), 10 mM HEPES (Thermo Fisher Scientific, cat. 15630080), 1X GlutaMAX supplement (Thermo Fisher Scientific, cat. 35050061), 0.1 mg/mL primocin (InvivoGen, cat. ant-pm-2), 10% defined fetal bovine serum, heat inactivated (HyClone Laboratories Inc., cat. SH30070.03HI), 50% L-WRN conditioned media (ATCC, cat. CRL-3276), 1.25 mM N-Acetyl-L-cysteine (Sigma-Aldrich, cat. A9165), 10 mM nicotinamide (Sigma-Aldrich, cat. N0636), 1X B-27 supplement (Thermo Fisher Scientific, cat. 17504044), 1X N-2 supplement (Thermo Fisher Scientific, cat. 17502048), 10 microM Y-27632 dihydrochloride (Tocris Bioscience, cat. 1254), and 50 ng/mL human EGF recombinant protein (Thermo Fisher Scientific, cat. PHG0311). The 485176-168-R4-J1-PDC line was cultured in Panc media, which includes all 6C/Colon 1B media components plus 100 ng/mL human FGF-10 (Thermo Fisher Scientific, cat. 100-26), 500 nM SB-431542 (Selleckchem, cat. S1067), and gastrin (Tocris, cat. 3006).
[…]

As usually defined, the viability, T/C is the ratio of treated to control. Broadly, the IC50 is the point on the concentration scale where inhibition reaches its midpoint.
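Note: spheroids exposed to the agents for seven days.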
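Throughout, for viability, T/C: percent of DMSO vehicle control viability which is 100%.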

As to `C=CCn1c(=O)c2cnc(Nc3ccc(N4CCN(C)CC4)cc3)nc2n1-c1cccc(C(C)(C)O)n1`, the viability, T/C is 103% (2×) and 101% (compound 0.0316 µM); 85.9% and 89.3% and 91.3% (compound 0.1 µM); 73.9% and 70.5% and 70.1% (compound 0.316 µM); 35.7% and 39.9% and 32.9% (compound 1 µM); 20.4% and 22.2% and 19.9% (compound 3.16 µM); 14.6% and 16.2% and 13.9% (compound 10 µM). For the same compound, the IC50 (curve of compound) is 649 nM and 682 nM and 590 nM.

Regarding `Cc1[nH]c2ccccc2c1CCNCc1ccc(/C=C/C(=O)NO)cc1`, the viability, T/C (compound 0.000999 µM) was 101% and 103% and 102%; the viability, T/C (compound 0.00316 µM) is 85.1% and 98.6% and 81.7%; the viability, T/C (compound 0.00999 µM) was 77.8% and 64.2% and 81.9%; the viability, T/C (compound 0.0316 µM) was 61.1% and 69.2% and 57.3%; the viability, T/C (compound 0.0999 µM) is 43% and 39.6% and 43.9%; the viability, T/C (compound 0.316 µM) was 18.1% and 22.3% and 22.9%. For the same compound, the IC50 (curve of compound) is 61.3 nM and 59.6 nM and 61.1 nM.

On to `Cc1[nH]c2ccccc2c1CCNCc1ccc(/C=C/C(=O)NO)cc1` + Cc1[nH]c2ccc(F)cc2c1-c1nc2c3cccnc3c3ncccc3c2[nH]1, for which the IC50 (curve of first compound, second compound 0.0316 µM) was found to be 63 nM; the IC50 (curve of first compound, second compound 0.1 µM) was 83.5 nM; the IC50 (curve of first compound, second compound 0.316 µM) is 65.7 nM; the IC50 (curve of first compound, second compound 1 µM) was 54.6 nM; the concentration for half-maximal inhibition (IC50) (curve of first compound, second compound 3.16 µM) was 21 nM; the half-maximal inhibitory concentration (IC50) (curve of first compound, second compound 10 µM) was 16.2 nM. The viability, T/C runs as follows: (second compound 0.0316 µM, first compound 0.000999 µM) 103%; (second compound 0.0316 µM, first compound 0.00316 µM) 85.6%; (second compound 0.0316 µM, first compound 0.00999 µM) 79.1%; (second compound 0.0316 µM, first compound 0.0316 µM) 64.2%; (second compound 0.0316 µM, first compound 0.0999 µM) 41.4%; (second compound 0.0316 µM, first compound 0.316 µM) 19.3%. The viability, T/C by setting is: (second compound 0.1 µM, first compound 0.000999 µM) 90.6%; (second compound 0.1 µM, first compound 0.00316 µM) 90.4%; (second compound 0.1 µM, first compound 0.00999 µM) 81.6%; (second compound 0.1 µM, first compound 0.0316 µM) 70.5%; (second compound 0.1 µM, first compound 0.0999 µM) 46.1%; (second compound 0.1 µM, first compound 0.316 µM) 17.3%. Moreover, the viability, T/C was 94% (second compound 0.316 µM, first compound 0.000999 µM); 94% (second compound 0.316 µM, first compound 0.00316 µM); 71.2% (second compound 0.316 µM, first compound 0.00999 µM); 62.3% (second compound 0.316 µM, first compound 0.0316 µM); 44.8% (second compound 0.316 µM, first compound 0.0999 µM); 19.7% (second compound 0.316 µM, first compound 0.316 µM). Further, the viability, T/C was 87.6% (second compound 1 µM, first compound 0.000999 µM); 78.7% (second compound 1 µM, first compound 0.00316 µM); 71.7% (second compound 1 µM, first compound 0.00999 µM); 57.2% (second compound 1 µM, first compound 0.0316 µM); 41.9% (second compound 1 µM, first compound 0.0999 µM); 21.2% (second compound 1 µM, first compound 0.316 µM). The viability, T/C is 69.8% (second compound 3.16 µM, first compound 0.000999 µM); 64.9% (second compound 3.16 µM, first compound 0.00316 µM); 53.6% (second compound 3.16 µM, first compound 0.00999 µM); 45.1% (second compound 3.16 µM, first compound 0.0316 µM); 41.3% (second compound 3.16 µM, first compound 0.0999 µM); 21.7% (second compound 3.16 µM, first compound 0.316 µM). Also, the viability, T/C runs as follows: (second compound 10 µM, first compound 0.000999 µM) 62%; (second compound 10 µM, first compound 0.00316 µM) 65.4%; (second compound 10 µM, first compound 0.00999 µM) 48.7%; (second compound 10 µM, first compound 0.0316 µM) 45.5%; (second compound 10 µM, first compound 0.0999 µM) 36.4%; (second compound 10 µM, first compound 0.316 µM) 20.8%.
